The source of these data is PubChem BioAssay (NCI).

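Grown in 96-well plates, cells were treated for 48 hours with each compound at five concentrations. Insufficient inhibition: endpoint recorded as highest concentration tested. At the GI50, growth is halved. TGI: total growth inhibition.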

One assay has as its system OVCAR-4 ovarian. The experiment in a line: DTP human tumour cell line panel, 48 h.
As usually defined, the GI50 is the concentration giving 50% growth inhibition. A word on the TGI: it is the concentration at which net growth stops. For `O=C(Nc1ccc(Cl)cc1)c1cccc(NC2=C(Cl)C(=O)N(Cc3ccccc3)C2=O)c1`, the GI50 was 12.5 µM and the TGI worked out at 34.8 µM.
For the compound `Nc1ncnc2n[nH]c(Nc3ccc(F)cc3)c12`, the GI50 is 19 µM and the TGI came to 75.2 µM.
On the same counts, the results for `CCN(CC)c1ccc(-c2cc(-c3cc(OC)c(OC)c(OC)c3)nc(N3CCOCC3)c2C#N)cc1` are 7.33 µM and above 100 µM.
The compound `CC(=O)OC1=CC(n2cc(F)c(=O)[nH]c2=O)OC(C)C1=O` (stereo not given) came in with a TGI above 100 µM.
In the case of `CC(=O)[C@@]12O[C@@H]1CC1C3CCC4=CC(O)CCC4(C)C3CCC12C` (stereo not given in full), the GI50 was 23.2 µM and the TGI was above 100 µM.
With `NC1(C(=O)OCc2ccccc2)CCCC1`, the TGI is 37.3 µM.
As to `Cc1cc(/C=C/c2ccc3cc(N(C)C)ccc3[n+]2C)c(C)n1-c1ccccc1`, the GI50 was 0.0723 µM and the TGI was 5.23 µM.
In the same order, the values of `Cn1cnc([N+](=O)[O-])c1S(=O)(=O)Oc1cccc2ccccc12` are 2.03 µM and 5.96 µM.
`CCCC(=O)OC1CC(n2cc(F)c(=O)[nH]c2=O)OC1COP(=O)(OCC(Cl)(Cl)Cl)OCC(Cl)(Cl)Cl` (stereo not given): the TGI is above 100 µM.
`COc1cc(OC)cc(-c2cc(=O)c3c(OC)c(OC)c(OC)c(OC)c3o2)c1` displayed a TGI above 100 µM.

Another assay concerns SF-295 CNS. Put plainly: DTP human tumour cell line panel, 48 h.
For `CCN1CCN(c2nc(C)cc(N(CCNc3ccnc4cc(Cl)ccc34)Cc3ccc4c(c3)OCO4)n2)CC1`, the GI50 is 1.76 µM and the TGI was 3.38 µM.
Take `COc1c(Cl)c(=O)oc2ccc(Cl)cc12`: the TGI was above 100 µM.
Still for that read-out and setting: with `NS(=O)(=O)c1cc(Br)c(N=Nc2ccc(O)c3ncccc23)c(Br)c1` the figure was above 100 µM.
As for `Cc1cc(I)cc(CN(C)CCCN2CCCCC2)c1O`, the GI50 is 2.39 µM and the TGI was 12.9 µM.
`COc1cc(NCc2ccc3oc(=O)c(-c4ccccc4)nc3c2)cc(OC)c1OC`: the TGI was above 10 µM.
As for `CN(C(=O)c1ccc(C(F)(F)F)cc1)c1ccc(Oc2ccc3c(c2)cc(C(=O)N2CCN(Cc4ccc(OC(F)F)cc4)CC2)n3C)nc1`, the concentration for 50% growth inhibition (GI50) was below 0.01 µM and the concentration for total growth inhibition (TGI) is above 100 µM.
`O=S(=O)(CCn1c(Sc2ccccc2)c(Sc2ccccc2)c2ccccc21)c1ccccc1`: the TGI is above 100 µM.
`O=c1[nH]c(Nc2nc3ccccc3[nH]2)nc(O)c1-c1ccccc1`: the TGI was above 100 µM.
Still for that read-out and setting: as for `Cc1ccccc1S(=O)(=O)OC1NS(=O)(=O)c2ccccc21` (stereo not given), the figure is above 100 µM.
On to `O=C(Nc1ccc(Cl)cc1)c1cccc(NC2=C(Cl)C(=O)N(Cc3ccccc3)C2=O)c1`, for which the GI50 was 15.5 µM and the TGI turned out to be 61.9 µM.
For the compound `Nc1ncnc2n[nH]c(Nc3ccc(F)cc3)c12`, the GI50 is above 100 µM and the TGI was above 100 µM.
For the compound `CCN(CC)c1ccc(-c2cc(-c3cc(OC)c(OC)c(OC)c3)nc(N3CCOCC3)c2C#N)cc1`, the GI50 was 0.809 µM and the TGI was 3.98 µM.
As for `CC(=O)OC1=CC(n2cc(F)c(=O)[nH]c2=O)OC(C)C1=O` (stereo not given), the TGI was above 100 µM.
For the compound `CC(=O)[C@@]12O[C@@H]1CC1C3CCC4=CC(O)CCC4(C)C3CCC12C` (stereo not given in full), the GI50 was 12.2 µM and the TGI came out at 56.5 µM.
With `NC1(C(=O)OCc2ccccc2)CCCC1`, the TGI came out at 34.7 µM.
Regarding `Cc1cc(/C=C/c2ccc3cc(N(C)C)ccc3[n+]2C)c(C)n1-c1ccccc1`, the GI50 is 0.11 µM and the TGI came out at 0.409 µM.
In the same order, the values of `Cn1cnc([N+](=O)[O-])c1S(=O)(=O)Oc1cccc2ccccc12` are 21.2 µM and above 65.3 µM.
Consider `CCCC(=O)OC1CC(n2cc(F)c(=O)[nH]c2=O)OC1COP(=O)(OCC(Cl)(Cl)Cl)OCC(Cl)(Cl)Cl` (stereo not given), for which the TGI was 16.8 µM. In other words, the double-digit micromolar range.
Same read-out and setting: with `COc1cc(OC)cc(-c2cc(=O)c3c(OC)c(OC)c(OC)c(OC)c3o2)c1` the figure was 69.8 µM.

For a further assay, the system named is MDA-MB-231 breast. Put plainly: DTP human tumour cell line panel, 48 h.
As to `CCN1CCN(c2nc(C)cc(N(CCNc3ccnc4cc(Cl)ccc34)Cc3ccc4c(c3)OCO4)n2)CC1`, the GI50 was 1.38 µM and the TGI amounted to 3.19 µM.
`COc1c(Cl)c(=O)oc2ccc(Cl)cc12`: the TGI is above 100 µM.
As for `NS(=O)(=O)c1cc(Br)c(N=Nc2ccc(O)c3ncccc23)c(Br)c1`, the TGI was above 100 µM.
Regarding `Cc1cc(I)cc(CN(C)CCCN2CCCCC2)c1O`, the GI50 was 18.4 µM and the TGI was found to be 48.6 µM.
On to `COc1cc(NCc2ccc3oc(=O)c(-c4ccccc4)nc3c2)cc(OC)c1OC`, for which the TGI was above 10 µM.
`CN(C(=O)c1ccc(C(F)(F)F)cc1)c1ccc(Oc2ccc3c(c2)cc(C(=O)N2CCN(Cc4ccc(OC(F)F)cc4)CC2)n3C)nc1`: the GI50 is above 80.2 µM and the TGI was above 100 µM.
In the case of `O=S(=O)(CCn1c(Sc2ccccc2)c(Sc2ccccc2)c2ccccc21)c1ccccc1`, the TGI is above 100 µM.
The compound `O=c1[nH]c(Nc2nc3ccccc3[nH]2)nc(O)c1-c1ccccc1` came in with a TGI above 100 µM.
On the same count and under the same terms, as for `Cc1ccccc1S(=O)(=O)OC1NS(=O)(=O)c2ccccc21` (stereo not given), the figure is above 100 µM.
Consider `O=C(Nc1ccc(Cl)cc1)c1cccc(NC2=C(Cl)C(=O)N(Cc3ccccc3)C2=O)c1`, for which the GI50 is 4.44 µM and the TGI is 17.6 µM.
For the compound `Nc1ncnc2n[nH]c(Nc3ccc(F)cc3)c12`, the GI50 was 21.5 µM and the TGI turned out to be 81.2 µM.
`CCN(CC)c1ccc(-c2cc(-c3cc(OC)c(OC)c(OC)c3)nc(N3CCOCC3)c2C#N)cc1`: the GI50 was 0.519 µM and the TGI was above 20.8 µM.
In turn, `CC(=O)OC1=CC(n2cc(F)c(=O)[nH]c2=O)OC(C)C1=O` (stereo not given) came in with a TGI above 100 µM.
In the case of `CC(=O)[C@@]12O[C@@H]1CC1C3CCC4=CC(O)CCC4(C)C3CCC12C` (stereo not given in full), the GI50 is 12.5 µM and the TGI was 26.8 µM.
On to `NC1(C(=O)OCc2ccccc2)CCCC1`, for which the concentration for total growth inhibition (TGI) was found to be 36.4 µM.
Regarding `Cc1cc(/C=C/c2ccc3cc(N(C)C)ccc3[n+]2C)c(C)n1-c1ccccc1`, the GI50 was 0.193 µM and the TGI is 1.09 µM.
Take `Cn1cnc([N+](=O)[O-])c1S(=O)(=O)Oc1cccc2ccccc12`: the GI50 is 4.46 µM and the TGI worked out at 14 µM.
